These results are taken from patent US20120252792A1, “METHODS AND COMPOSITIONS FOR MODULATING RHO-MEDIATED GENE TRANSCRIPTION” (THE REGENTS OF THE UNIVERSITY OF MICHIGAN, priority 2009, published 2012).

Holding throughout (type): cell-based, human
One experiment has as its system Rho/MKL1 pathway. In words: SRE.L-firefly luciferase reporter (dual luciferase assay), Gα12QL-transfected PC-3 cells. Conditions: Homo sapiens, 19 h; for inhibition at 10 µM / inhibition at 100 µM: DMSO alone = 0%; for inhibition at 10 µM: read-out: % inh SRE.L (10 μM); for inhibition at 100 µM: read-out: % inh SRE.L (100 μM). The procedure:
(§1) Dual Luciferase Assay: Seed PC-3 prostate cancer cells (40,000 cells/well) were grown in 96-well plates in 10% FBS containing DMEM medium. Cells were transiently transfected with the Gα12QL activator of the Rho/MKL1 pathway, along with the SRE.L-firefly luciferase reporter construct for 6 hours. Additionally, cells were co-transfected with the TK-Renilla luciferase reporter as an indicator of non-specific compound effects. Various concentrations of selected compounds were added to the 96-well plates. Plates were incubated for 19 hours at 37° C. and 5% CO2 in 0.5% FBS containing DMEM medium. Cells were lysed with 1X Passive Lysis Buffer (Promega). Plates were incubated for 30 minutes at room temperature. Luminescence counts were read with a Victor2 (Perkin-Elmer) plate reader.
A general note: A reporter such as luciferase makes a cellular process visible.

The test system of experiment [1] is TK-Renilla luciferase reporter. Nature of the experiment: TK-Renilla (pRL-TK) luciferase reporter, indicator of non-specific compound effects. Conditions: Homo sapiens, PC-3, 19 h, PC-3 cells; for inhibition at 10 µM: read-out: % inh PRL-TK (10 μM); for inhibition at 100 µM: read-out: % inh PRL-TK (100 μM). The procedure:
as §1

For experiment [2], the system named is PC-3 prostate cancer cells. Nature of the experiment: WST1 cell viability assay. Conditions: Homo sapiens, PC-3 cells, just before lysis; for inhibition at 10 µM: PC-3, 10 μM, read-out: % inh WST-1 (10 μM); for inhibition at 100 µM: PC-3, 100 μM, read-out: % inh WST-1 (100 μM). The protocol:
WST1 Cell Viability Assay: One hour prior to cell lysis for the dual luciferase assay, 10 μl per well of WST1 reagent (Roche) was added to the 96-well plates. Plates were incubated for 1 hour at 37° C. and 5% CO2. Cell viability was measured by WST1 absorbance at 450 nm with a Victor2 (Perkin-Elmer) plate reader.

Usually pIC50 stands for the negative decadic logarithm of the IC50, by convention in mol/L. A lower pIC50 goes with a large IC50.

pIC50: −log10 of the molar value.

Turning to `O=C(CONC(=O)c1cc(C(F)(F)F)cc(C(F)(F)F)c1)Nc1ccc(Cl)cc1` [Compound 1, N-(2-(4-chlorophenylamino)-2-oxoethoxy)-3,5-bis(trifluoromethyl)benzamide], in the experiment with Rho/MKL1 pathway, the pIC50 is 5.33, the inhibition at 10 µM turned out to be 71% and the inhibition at 100 µM was 100%. Besides, in experiment [1], the inhibition at 10 µM was 53% and the inhibition at 100 µM amounted to 89%. In experiment [2], the inhibition at 10 µM stood at 42% and the inhibition at 100 µM came out at 91%.

As for `O=C(CCCNC(=O)c1cc(C(F)(F)F)cc(C(F)(F)F)c1)Nc1ccc(Cl)cc1` [Compound 2, N-(4-(4-chlorophenylamino)-4-oxobutyl)-3,5-bis(trifluoromethyl)benzamide], in the experiment on Rho/MKL1 pathway, the pIC50 was 4.68, the inhibition at 10 µM turned out to be 37% and the inhibition at 100 µM came out at 79%. Besides, in experiment [1], the inhibition at 10 µM worked out at 5% and the inhibition at 100 µM is 42%. In addition, in experiment [2], the inhibition at 10 µM is 0% and the inhibition at 100 µM was determined as 12%.

As for `O=C(CNC(=O)c1cc(C(F)(F)F)cc(C(F)(F)F)c1)Nc1ccc(Cl)cc1` [Compound 3, N-(2-(4-chlorophenylamino)-2-oxoethyl)-3,5-bis(trifluoromethyl)benzamide], in the experiment on Rho/MKL1 pathway, the pIC50 is 4.48, the inhibition at 10 µM amounted to 45% and the inhibition at 100 µM came out at 85%. For the same compound, in experiment [1], the inhibition at 10 µM amounted to 15% and the inhibition at 100 µM turned out to be 25%. In experiment [2], the inhibition at 10 µM is 0% and the inhibition at 100 µM was determined as 30%.

For `O=C(Nc1ccc(Cl)cc1)C1CCN(C(=O)c2cc(C(F)(F)F)cc(C(F)(F)F)c2)CC1` [Compound 5, 1-(3,5-bis(trifluoromethyl)benzoyl)-N-(4-chlorophenyl)piperidine-4-carboxamide], in the experiment with Rho/MKL1 pathway, the negative-log IC50 (pIC50) is 4.80, the inhibition at 10 µM was 17% and the inhibition at 100 µM turned out to be 87%. Further, in experiment [1], the inhibition at 10 µM was determined as 0% and the inhibition at 100 µM came to 17%. In experiment [2], the inhibition at 10 µM was determined as 0% and the inhibition at 100 µM is 39%.

Regarding `O=C(CONC(=O)c1ccc(Cl)cc1)Nc1cc(C(F)(F)F)cc(C(F)(F)F)c1` [Compound 6, N-(2-(3,5-bis(trifluoromethyl)phenylamino)-2-oxoethoxy)-4-chlorobenzamide], in the experiment with Rho/MKL1 pathway, the pIC50 is 5.07, the inhibition at 10 µM is 58% and the inhibition at 100 µM was 100%. Moreover, in experiment [1], the inhibition at 10 µM was 19% and the inhibition at 100 µM turned out to be 87%. In experiment [2], the inhibition at 10 µM was determined as 11% and the inhibition at 100 µM amounted to 96%.

For the compound `O=C(Nc1ccc(Cl)cc1)C1CCCN1C(=O)c1cc(C(F)(F)F)cc(C(F)(F)F)c1` (stereo not shown) [Compound 7, 1-(3,5-bis(trifluoromethyl)benzoyl)-N-(4-chlorophenyl)pyrrolidine-2-carboxamide], the pIC50 in the experiment on Rho/MKL1 pathway was 4.16. For the same compound, the inhibition at 10 µM was 23% with Rho/MKL1 pathway, 12% in experiment [1] and 0% in experiment [2]. Besides, the values for the inhibition at 100 µM (with Rho/MKL1 pathway; in experiment [1]; in experiment [2]) were 83%, 27% and 22%, respectively.

As to `O=C(CONC(=O)c1cc(C(F)(F)F)cc(C(F)(F)F)c1)Nc1cccc(Cl)c1` [Compound 10, N-(2-(3-chlorophenylamino)-2-oxoethoxy)-3,5-bis(trifluoromethyl)benzamide], in the experiment on Rho/MKL1 pathway, the pIC50 was 5.23. Besides, the inhibition at 10 µM in the experiment on Rho/MKL1 pathway is 65%; in experiment [1], 51%; in experiment [2], 49%. Besides, the inhibition at 100 µM in the experiment with Rho/MKL1 pathway stood at 100%; in experiment [1], 89%; in experiment [2], 97%.

Take `O=C(Nc1ccc(Cl)cc1)c1cccc(NC(=O)c2cc(C(F)(F)F)cc(C(F)(F)F)c2)c1` [Compound 14, N-(3-(4-chlorophenylcarbamoyl)phenyl)-3,5-bis(trifluoromethyl)benzamide]: the negative logarithm of the IC50 (pIC50) with Rho/MKL1 pathway is 5.77. For the same compound, the inhibition at 10 µM in the experiment on Rho/MKL1 pathway was 79%; in experiment [1], 0%; in experiment [2], 38%.

Take `O=C(Nc1cc(C(F)(F)F)cc(C(F)(F)F)c1)C1CC(=O)N(c2ccc(Cl)cc2)C1` (stereo not shown) [Compound 51, N-(3,5-bis(trifluoromethyl)phenyl)-1-(4-chlorophenyl)-5-oxopyrrolidine-3-carboxamide]: the inhibition at 10 µM with Rho/MKL1 pathway is 74.3%; in experiment [2], 55.9%. For the same compound, the results for the inhibition at 100 µM (with Rho/MKL1 pathway; in experiment [2]) were 99.2% and 74.6%, respectively.

Regarding `COc1cc(N2CC(NC(=O)c3cc(C(F)(F)F)cc(C(F)(F)F)c3)CC2=O)ccc1Cl` (stereo not shown) [Compound 52, N-(1-(4-chloro-3-methoxyphenyl)-5-oxopyrrolidin-3-yl)-3,5-bis(trifluoromethyl)benzamide], in the experiment with Rho/MKL1 pathway, the inhibition at 10 µM was -18.4% and the inhibition at 100 µM is 16.9%. For the same compound, in experiment [2], the inhibition at 10 µM was -0.3% and the inhibition at 100 µM is 42.2%.

As for `O=C(NCC1CCN(c2ccc(Cl)cc2)C1=O)c1cc(C(F)(F)F)cc(C(F)(F)F)c1` (stereo not shown) [Compound 53, N-((1-(4-chlorophenyl)-2-oxopyrrolidin-3-yl)methyl)-3,5-bis(trifluoromethyl)benzamide], in the experiment with Rho/MKL1 pathway, the inhibition at 10 µM was determined as 14.1% and the inhibition at 100 µM came out at 32.3%. For the same compound, in experiment [2], the inhibition at 10 µM stood at 7.9% and the inhibition at 100 µM was 26.9%.

In the case of `O=C1Nc2ccc(Cl)cc2C1=CNC(=O)c1cc(C(F)(F)F)cc(C(F)(F)F)c1` [Compound 54, N-((5-chloro-2-oxoindolin-3-ylidene)methyl)-3,5-bis(trifluoromethyl)benzamide], in the experiment on Rho/MKL1 pathway, the inhibition at 10 µM is 6.5% and the inhibition at 100 µM stood at 12.2%. Further, in experiment [2], the inhibition at 10 µM came to 10.6% and the inhibition at 100 µM came to 17.7%.

Turning to `COc1ccc(N2CC(NC(=O)c3cc(C(F)(F)F)cc(C(F)(F)F)c3)CC2=O)cc1Cl` (stereo not shown) [Compound 55, N-(1-(3-chloro-4-methoxyphenyl)-5-oxopyrrolidin-3-yl)-3,5-bis(trifluoromethyl)benzamide], the inhibition at 10 µM worked out at 4.5% with Rho/MKL1 pathway and 7.4% in experiment [2]. Moreover, the inhibition at 100 µM is 26% in the experiment on Rho/MKL1 pathway and 23.9% in experiment [2].

Take `O=C(c1cc(C(F)(F)F)cc(C(F)(F)F)c1)N1CCCC(CNc2ccc(Cl)cc2)C1` (stereo not shown) [Compound 56]: in the experiment with Rho/MKL1 pathway, the inhibition at 10 µM was 11.5% and the inhibition at 100 µM came out at 8.3%. Also, in experiment [2], the inhibition at 10 µM stood at 24.8% and the inhibition at 100 µM turned out to be 22.4%.

With `CC(C)(C)OC(=O)NC1CCN(c2ccc(Cl)cc2)C1` (stereo not shown) [Compound 57, tert-butyl (1-(4-chlorophenyl)pyrrolidin-3-yl)carbamate], in the experiment with Rho/MKL1 pathway, the inhibition at 10 µM was -44.4% and the inhibition at 100 µM worked out at 18.7%. For the same compound, in experiment [2], the inhibition at 10 µM was determined as 9.2% and the inhibition at 100 µM was 21.1%.

With `O=C(NC1CCN(c2ccc(Cl)cc2)C1)c1cc(C(F)(F)F)cc(C(F)(F)F)c1` (stereo not shown) [Compound 58, N-(1-(4-chlorophenyl)pyrrolidin-3-yl)-3,5-bis(trifluoromethyl)benzamide], the inhibition at 10 µM in the experiment with Rho/MKL1 pathway was -4.6%; in experiment [2] it was -10.5%. Also, the values for the inhibition at 100 µM (in the experiment with Rho/MKL1 pathway; in experiment [2]) were 10.5% and -1.7%, respectively.
